Consider one molecule from patent publication US20100204276A1, “INDOLE COMPOUNDS, A PROCESS FOR THEIR PREPARATION AND PHARMACEUTICAL COMPOSITIONS CONTAINING THEM” (LES LABORATOIRES SERVIER, priority 2006, published 2010).

One data set has as its target MT1 receptor (Homo sapiens, UniProt P48039). In words: Melatonin MT1 receptor binding study (2-[125I]-iodomelatonin competition). The following applies: 2-[125I]-iodomelatonin as radioligand, triplicate. The procedure:
(§1) The MT1 or MT2 receptor binding experiments are carried out using 2-[^125I]-iodomelatonin as reference radioligand. The radioactivity retained is determined using a liquid scintillation counter.
(§2) Competitive binding experiments are then carried out in triplicate using the various test compounds. A range of different concentrations is tested for each compound. The results enable the binding affinities (Ki) of the compounds tested to be determined.

Another data set addresses T1, MT2 receptor (Homo sapiens, UniProt P49286).
T1 sequence (P49286 1-362): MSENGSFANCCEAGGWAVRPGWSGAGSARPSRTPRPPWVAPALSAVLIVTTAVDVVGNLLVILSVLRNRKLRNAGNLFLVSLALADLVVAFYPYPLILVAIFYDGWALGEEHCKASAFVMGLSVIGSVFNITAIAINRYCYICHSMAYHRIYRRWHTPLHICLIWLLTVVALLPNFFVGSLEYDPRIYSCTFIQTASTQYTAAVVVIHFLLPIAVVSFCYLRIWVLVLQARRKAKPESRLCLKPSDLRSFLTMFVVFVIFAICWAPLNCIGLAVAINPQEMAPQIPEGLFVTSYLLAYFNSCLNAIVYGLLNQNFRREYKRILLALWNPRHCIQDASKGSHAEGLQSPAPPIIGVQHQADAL
In words: Melatonin MT2 receptor binding study (2-[125I]-iodomelatonin competition). The following applies: 2-[125I]-iodomelatonin as radioligand, triplicate. Here is the method:
as §1, §2

MT1 receptor, sequence (P48039 whole entry): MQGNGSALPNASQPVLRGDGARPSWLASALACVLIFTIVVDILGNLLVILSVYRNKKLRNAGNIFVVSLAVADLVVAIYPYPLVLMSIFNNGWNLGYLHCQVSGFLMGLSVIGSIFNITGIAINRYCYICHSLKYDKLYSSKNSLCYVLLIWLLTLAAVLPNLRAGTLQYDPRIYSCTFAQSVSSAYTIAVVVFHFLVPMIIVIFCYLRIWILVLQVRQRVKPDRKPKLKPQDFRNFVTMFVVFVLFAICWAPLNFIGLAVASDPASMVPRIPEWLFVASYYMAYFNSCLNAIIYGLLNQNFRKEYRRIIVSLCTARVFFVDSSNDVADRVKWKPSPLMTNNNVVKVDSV

`CCCC(=O)NCCc1c[nH]c2ccc(OCCN3CCCCC3)cc12` [Example 3, N-(2-{5-[2-(1-piperidinyl)ethoxy]-1H-indol-3-yl}ethyl)butanamide]: the melting point (in general, the temperature, or range, at which the solid turns liquid) was in the range of 113 to 114 °C. Besides, the Ki (commonly the dissociation constant of the complex between target and ligand, obtained from inhibition or displacement) at MT1 receptor was 11 nM. Further, the Ki on MT2 receptor stood at 19 nM.
